Patent publication US20040132095A1, “Method of selecting antimicrobial agent and method of using the same” (priority 2001, published 2004)

Assays:
Deinococcus geothermalis [1] = test: Analysis of microbial biota of white water of the machine, factory D (Example 3); conditions: DBNPA treatment
Source text: In the paper manufacturing factory D, another machine of a type similar to that used in Example 2 operating under conditions similar to those in Example 2 is installed adjacent to the machine of Example 2. In this machine, no occurrence of pink-colored […] recognized even at the occasion at which the pink-colored slime occurred in the machine of Example 2. Therefore, procedures corresponding to those in Example 1 were proceeded, wherein each 36 strains were isolated using agar medium and analysis of the microbial biota was carried out. Since a large number of strains are to be tested, each 16S rDNA obtained from each strain was treated by digestion with three kinds of restriction enzymes (BstUI, RsaI and HhaI) isolatedly to effect TRFLP analysis, in order to group preliminarily into classes of microbes of same reaction pattern, whereupon identification was effected based on the base sequence as identification parameter. It was recognized thereby that the occupation proportion of Deinococcus geothermalis in the isolated 36 strains was calculated to be only 2.7% (one strain). Since the machine construction is similar, this machine would suffer from same trouble by occurrence of pink-colored slime after a prolonged operation. […]

Deinococcus geothermalis [2] = test: Data base search and sterilizing experiment, Example 2; type: cell-based; conditions: data base search, confirmed by sterilizing experiment
Rhizobium sp. = test: Data base search and sterilizing experiment (Example 9); type: cell-based
[3] = test system: Gram-negative bacterium near-related to Riemerella; test: as above; type: cell-based
[4] = test system: all the other isolated bacteria; test: Data base search / sterilizing experiment, other isolated strains of Example 1 slime; type: cell-based; conditions: strains isolated from slime of Example 1
[5] = test system: Microbacterium sp. (microbe number 6354); test: Data base search for antimicrobial agent, confirmed by sterilizing experiment, dominant microbe of Example 1 slime; type: cell-based
slime [6] = test: Monitoring demonstrators (slime testers) at paper machine of factory D (Example 3)
Description: Since the machine construction is similar, this machine would suffer from same trouble by occurrence of pink-colored slime after a prolonged operation. Therefore, monitoring of machine by prior practice was proceeded more […] the same time, the analysis of the microbial biota of white water same as in the above test method was performed at a more frequent interval, namely, at an interval of 7-14 days (with increase in the number of isolated strains to 48). […] On the other hand, white water devoid of DBNPA content was reserved by storing in a storage reservoir the white water taken from its supply line during a time interval discrepant from the DBNPA injection period, to preserve a reagent-free white water for the test.

[7] = test system: pink-colored bacterial slime / Deinococcus geothermalis; test: Slime control treatment at paper manufacturing factory D, white water circulation system (Example 2); conditions: slime formed during long term slime control with DBNPA based agent
Chaetomium elatum = test: Data base search for antimicrobial agent, filamentous fungus (Example 6); type: cell-based
[8] = test system: microbe belonging to a genus Microbacterium (microbe number 2401); test: Data base search for antimicrobial agent, dominant microbe of yellow-colored slime (Example 4); type: cell-based
slime in CP tube = test: Slime control treatment of clear white water pit / CP line, paper machine Y (Example 11); conditions: intermittent introduction into the clear white water pit twice a day
Description: In a paper machine Y (a daily throughput of 410 tons, slightly coated paper, pH 7.5) of a paper manufacturing factory B, occurrence of light brown-colored defects having sizes of about 5 mm diameter was recognized frequently since 11th day from the start of operation, caused to result in cessation of operation. The defect portions were cut out from the paper and three cut out pieces (about 8.1 mg) were cut into 2 mm squares, which were placed in a 2 ml microcentrifugal tube made of plastic material. To this tube, 1 ml of a DNA-extracting buffer solution (100 mM Tris-Cl, 100 mM EDTA-Na, 100 mM Na2HPO4 and 1.5 M NaCl (pH 8.0)) was added, followed by standing still at room temperature for 30 minutes to cause the paper pieces to be impregnated sufficiently with the solution.
From the above analysis results, it was assumed that the defect was caused by introduction of the slime formed in CP tube into the papermaking process course upon detachment or the like. In the CP line, clear white water obtained by treating white water through a polydiscfilter was used, which had hitherto not been subjected to a slime control treatment. Therefore, treatment was now applied by intermittent introduction of a slime control agent containing as the main component 2,2-dibromo-3-nitrilopropionamide into the clear white water pit twice a day.

Sphingomonas = test: Data base search and sterilizing experiment (Example 9); type: cell-based
Acidovorax temperans = test: as above; type: cell-based
slime [9] = test: Laboratory torque type slime formation testing apparatus, artificial white water (Example 1); type: cell-based
Source text: A torque type slime formation testing apparatus was used, which is described in Japanese Patent Kokai Hei 9-75065 A. The testing apparatus is constructed from a stationary outer cylinder and a rotatable inner cylinder disposed concentrically with the outer cylinder leaving a free space therebetween for allowing flow of water therein while rotating the inner cylinder so as to permit to grow slime formed on the surface of the inner […]. To this testing apparatus, an artificial white water (containing 142 mg/liter of soluble starch and 11.6 mg/liter of ammonium sulfate and having a pH of 7.0) was supplied continuously at a temperature of 30° C. so as to maintain a residence time in the apparatus of 20 minutes, while adding thereto intermittently a slime control agent containing as the main component DBNPA (dibromonitrilopropionamide) three times a day each for a duration of 15 minutes at a contact concentration of 2.5 mg/liter. […] Each isolated strain was taken up on a platinum loop and was suspended in 0.4 ml of TE buffer solution (10 mM Tris-HCl, 1 mM EDTA, pH 8.0) retained allotted in a 1.5 ml microcentrifugal tube. Based on the above results, test experiment was carried out under the same experimental condition except that HPGHC was used as the slime control agent so as to maintain the concentration thereof in the system at 0.3 mg/liter. […] This HPGHC-treated slime collected at this occasion was tested by analysis of microbial biota thereof in the same manner as above, whereby Microbacterium sp. was not detected.

Deinococcus geothermalis [10] = test: Data base search and sterilizing experiment (Example 9); type: cell-based
Ralstonia eutropha = type: cell-based; conditions: data base search
Deinococcus geothermalis [11] = test: Origin treatment of wet broke chest in paper manufacturing process, Deinococcus geothermalis among 48 isolated strains (Example 9)
Description: (§1) Samples were collected at various locations in the paper manufacturing process courses and, for each of them, total microbe cell count was measured by microscope direct count method after staining with DAPI, whereupon 48 strains were isolated by agar plate culture to determine the proportion of existence of Deinococcus geothermalis among the 48 strains based on the base sequence of 16S rDNA. Based on the results of the search for slime conrol agent, the treatment scheme was revised to the operation in which a slime control agent containing HPGHC as the effective component is added as the origin treating agent to the wet broke chest three times a day each at a dose rate of 25 milligrams per liter of the retained liquor (chest capacity), while supplying the white water circulation system with a slime control agent containing DBNPA as the effective component in the conventional manner. At the occasion of the second shut down after the revision of the treatment scheme and at an occasion directly before it, samples were collected at various locations in the paper manufacturing process courses, for which total microbe cell count and the proportion of existence of Deinococcus geothermalis were determined in the same way as the former practice. It was found thereby that the total microbe counts were unchanged and within the range of ordinary fluctuation, but Deinococcus geothermalis became undetectable.

[12] = test system: total microbe cells / slime; test: Origin treatment of wet broke chest in paper manufacturing process, total cell count and slime deposition (Example 9)
Description: as §1

[13] = DBNPA 2 mg/l or even lower, contact time 30 minutes
[14] = after HPGHC origin treatment plus DBNPA
[15] = after HPGHC origin treatment plus DBNPA, Clear white water in clear white water pit
[16] = after HPGHC origin treatment plus DBNPA, Dry broke chest
[17] = after HPGHC origin treatment plus DBNPA, Wet broke chest
[18] = after HPGHC origin treatment plus DBNPA, White water in white water silo
[19] = second shut down after revision of the treatment scheme (HPGHC to wet broke chest plus DBNPA)

N#CC(Br)(Br)C(N)=O [DBNPA, 2,2-dibromo-3-nitrilopropionamide]
occupation proportion of Deinococcus geothermalis (Deinococcus geothermalis [1]; fifth test cycle on the 47th day, 6 of 48 strains): 12.5%
occupation proportion of Deinococcus geothermalis (Deinococcus geothermalis [1]; up to the fourth test cycles, 48 strains): 2-4%
resistance of Deinococcus geothermalis (Deinococcus geothermalis [2]): resistant
living microbe cells extinct (Rhizobium sp.; [13]): 99%
susceptibility of Rhizobium Sp. (Rhizobium sp.; data base search): susceptible
living microbe cells extinct [3, 13]: 99%
susceptibility of Gram-negative bacterium near-related to Riemerella ([3]; data base search): susceptible
susceptibility of all other isolated bacterium strains [4]: susceptible
resistance of Microbacterium sp. to the agent ([5]; data base search, confirmed by sterilizing experiment): resistance
sign of growth of slime in demonstrator (slime [6]; fifth test cycle, 47th day, No. 3 demonstrator inorganic bromine compound, No. 1 and No. 2 demonstrators DBNPA): sign of growth of slime was recognized
deposited amount of slime in No. 2 demonstrator (slime [6]; simulator supplied with DBNPA-containing agent, after the change of the machine agent): increased gradually
occurrence of pink-colored slime in No. 2 demonstrator (slime [6]; simulator supplied with DBNPA-containing agent, day after the change of the antimicrobial agent): visually recognized on the 14th day
occupation proportion of Deinococcus geothermalis in the entire microbe population [7]: 46%
susceptibility of Chaetomium elatum (Chaetomium elatum): non-susceptible
resistance of dominant microbe (microbe number 2401) [8]: resistance
occurrence of defect on paper (slime in CP tube): removed
occurrence of slime formation in the CP tube (slime in CP tube): decreased remarkably
living microbe cells extinct (Sphingomonas; [13]): 99%
susceptibility of Shingomonas (Sphingomonas; data base search): susceptible
living microbe cells extinct (Acidovorax temperans; [13]): 99%
susceptibility of Acidovorax temperans (Acidovorax temperans; data base search): susceptible
slime layer thickness (slime [9]; DBNPA 2.5 mg/liter contact concentration, three times a day for 15 minutes, 12 days, pH 7.0, 30° C.): 119 μm
sterilization of Deinococcus geothermalis (Deinococcus geothermalis [10]; DBNPA 30 mg/l for 30 minutes): completely not sterilized
resistance of Deinococcus geothermalis (Deinococcus geothermalis [10]; data base search): resistant

OCl [sodium hypochlorite]
ranking of effectiveness for registered Ralstonia eutropha (Ralstonia eutropha): most effective

O=C(C(Cl)=NO)c1ccc(O)cc1 [HPGHC, 2-(p-hydroxyphenyl)glyoxylohydroximoyl chloride]
Deinococcus geothermalis in cling substance from the suction box (Deinococcus geothermalis [11]; [14]): no Deinococcus geothermalis detected
Number of strains of Deinococcus geothermal is (number of colonies among 48 strains) (Deinococcus geothermalis [11]; [15]): 0
Number of strains of Deinococcus geothermal is (number of colonies among 48 strains) (Deinococcus geothermalis [11]; [16]): 0
Number of strains of Deinococcus geothermal is (number of colonies among 48 strains) (Deinococcus geothermalis [11]; [17]): 0
Number of strains of Deinococcus geothermal is (number of colonies among 48 strains) (Deinococcus geothermalis [11]; [18]): 0
Deinococcus geothermalis in samples from process courses (Deinococcus geothermalis [11]; [19]): undetectable
susceptibility of all other isolated bacterium strains [4]: susceptible
minimum effective concentration ([5]; from data base for search for antimicrobial agent): 0.2 mg/L
amount of deposition of slime ([12]; HPGHC 25 mg per liter to wet broke chest three times a day plus DBNPA to white water circulation system): reduced considerably
total microbe cell count in cling substance from the suction box [12, 14]: 3.5×10^9 cells per one gram of dry substance
Total cell count [12, 15]: 3.1 × 10^7 cells/ml
Total cell count [12, 16]: 6.0 × 10^7 cells/ml
Total cell count [12, 17]: 5.3 × 10^7 cells/ml
Total cell count [12, 18]: 4.8 × 10^7 cells/ml
total microbe counts [12, 19]: unchanged
Microbacterium sp. in treated slime (analysis of microbial biota) (slime [9]; HPGHC 0.3 mg/liter): not detected
amount of cling substance (slime [9]; HPGHC 0.3 mg/liter): remarkably decreased
slime thickness (slime [9]; HPGHC maintained at 0.3 mg/liter in the system, same test period (12 days)): 3 μm
sterilization of Deinococcus geothermalis (Deinococcus geothermalis [10]; HPGHC system internal concentration 20 mg/l for 20 minutes, data base): sterilized

O=C(CBr)OCC=CCOC(=O)CBr [BBAB, 1,4-bis-(bromoacetoxy)-2-butene]
susceptibility of Chaetomium elatum (Chaetomium elatum): non-susceptible
